Common to all, as to format: cell-based
The target in experiment [1] is Histone deacetylase. The experiment is described as follows: Inhibition of HDAC in human A549 cells using Boc-K(Ac)-AMC as substrate by fluorescence assay.
For experiment [2], the target named is Histone deacetylase. The experiment in a line: Inhibition of HDAC in human K562 cells using Boc-K(Ac)-AMC as substrate by fluorescence assay.
Experiment [3] has as its target Histone deacetylase. The experiment in a line: Inhibition of HDAC in human HeLa cells using Boc-K(Ac)-AMC as substrate by fluorescence assay.
Experiment [4] has as its target T1, Histone-lysine N-methyltransferase EHMT2 (Homo sapiens, UniProt Q96KQ7).
T1 sequence (Q96KQ7 whole entry): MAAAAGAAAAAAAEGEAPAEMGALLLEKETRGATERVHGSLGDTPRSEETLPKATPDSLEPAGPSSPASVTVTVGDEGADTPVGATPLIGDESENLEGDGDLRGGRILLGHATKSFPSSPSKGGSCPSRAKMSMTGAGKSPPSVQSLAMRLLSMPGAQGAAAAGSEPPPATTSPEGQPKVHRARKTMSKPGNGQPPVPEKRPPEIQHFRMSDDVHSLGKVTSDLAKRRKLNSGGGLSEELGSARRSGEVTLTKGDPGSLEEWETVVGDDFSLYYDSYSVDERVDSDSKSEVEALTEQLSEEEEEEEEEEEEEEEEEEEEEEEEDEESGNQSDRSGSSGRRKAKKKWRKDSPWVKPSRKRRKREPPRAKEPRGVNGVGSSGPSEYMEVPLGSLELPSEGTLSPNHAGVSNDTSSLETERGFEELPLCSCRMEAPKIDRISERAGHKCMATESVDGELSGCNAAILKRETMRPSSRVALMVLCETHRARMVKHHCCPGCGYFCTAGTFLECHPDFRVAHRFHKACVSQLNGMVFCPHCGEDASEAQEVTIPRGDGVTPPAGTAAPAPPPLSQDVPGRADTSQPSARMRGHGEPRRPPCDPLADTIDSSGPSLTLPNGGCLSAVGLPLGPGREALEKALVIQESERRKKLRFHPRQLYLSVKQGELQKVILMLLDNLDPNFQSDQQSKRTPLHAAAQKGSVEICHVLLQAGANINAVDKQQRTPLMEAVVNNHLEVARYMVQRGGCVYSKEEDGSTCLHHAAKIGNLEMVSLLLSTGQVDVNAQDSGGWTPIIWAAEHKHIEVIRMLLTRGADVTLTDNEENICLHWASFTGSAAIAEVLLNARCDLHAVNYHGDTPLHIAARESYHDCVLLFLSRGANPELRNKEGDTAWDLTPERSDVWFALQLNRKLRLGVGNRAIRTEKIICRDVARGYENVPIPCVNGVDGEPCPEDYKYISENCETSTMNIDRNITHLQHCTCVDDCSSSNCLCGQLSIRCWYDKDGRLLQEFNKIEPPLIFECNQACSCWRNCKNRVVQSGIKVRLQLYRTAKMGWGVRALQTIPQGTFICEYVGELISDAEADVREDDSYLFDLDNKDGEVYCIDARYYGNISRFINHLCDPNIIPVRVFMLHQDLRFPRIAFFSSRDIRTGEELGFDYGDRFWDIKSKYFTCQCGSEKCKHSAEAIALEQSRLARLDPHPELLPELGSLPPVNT
The experiment in a line: Inhibition of G9a in human MDA-MB-231 cells assessed as reduction in H3K9me2 level after 2 days by immunofluorescence in-cell western analysis.

In general, IC50 refers to the point on the concentration scale where inhibition reaches its midpoint.

On to `COc1ccc2c(NC3CCN(Cc4ccccc4)CC3)nc(NCCNC(=O)CCCCCCC(=O)NO)nc2c1`, for which the IC50 on Histone deacetylase [1] is above 100 µM; at Histone deacetylase [2] it was 27.75 µM; against Histone deacetylase [3] it was 15.33 µM.
As for `CNC(=O)CCCCC(=O)NCCNc1nc(NC2CCN(C)CC2)c2ccc(OC)cc2n1`, the IC50 in experiment [4] amounted to 47 µM.
Regarding `COc1ccc2c(NC3CCN(Cc4ccccc4)CC3)nc(NCCNC(=O)CCCCCC(=O)NO)nc2c1`, the IC50 at Histone deacetylase [1] was above 100 µM; on Histone deacetylase [2] it was 5.735 µM; on Histone deacetylase [3], 13.8 µM.
On to `COc1ccc2c(NCCNC(=O)CCCCCCC(=O)NO)nc(N3CCCN(C)CC3)nc2c1`, for which the IC50 at Histone deacetylase [1], against Histone deacetylase [2] and against Histone deacetylase [3] was above 100 µM throughout.

The values above are taken from ChEMBL document CHEMBL4251690, “Histone Deacetylase Inhibitors as Treatment for Targeting Multiple Components in Cancer Therapy” (ACS Med Chem Lett, 2018).
